According to patent US8524899B2, “Alternative heterocycles for DNA recognition” (California Institute of Technology, priority 2003, dated 2013):
Values belong to the compound of their own block, whether it stands above or below them.

Assays:
[1] = test system: 32P-3′-labeled EcoRI/PvuII restriction fragment of plasmid pDR1 (sites 5′-TGTCTA-3′, 5′-TGTTTA-3′, 5′-TGTATA-3′, 5′-TGTGTA-3′); assay: Quantitative DNase I footprint titration on pDR1 restriction fragment; type: binding
Experimental: FIG. 4 illustrates the equilibrium association constants Ka[M^−1] for Polyamide Oligomers A-C, N, Q, and P. The reported association constants are the average values obtained from three DNase I footprint titration experiments, with the standard deviation for each data set indicated in the experiments. Assays were carried out at 22° C. at pH 7.0 in the presence of 10 mM Tris-HCl, 10 mM KCl, 10 mM MgCl2, and 5 mM CaCl2 with an equilibration time of 12 h. Specificities are give in brackets under the Ka values and calculated as Ka (match)/Ka (mismatch).
To examine whether an imidazo[4,5-b]pyridine unit Ip can replace a five-membered imidazole ring Im within an eight-ring hairpin polyamide regarding DNA binding affinity and specificity, polyamide oligomer A and its related all five-membered ring hairpin oligomer N were evaluated by DNase I footprint titrations under identical conditions. Quantitative DNase I footprint titration experiments (10 mM Tris-HCl, 10 mM KCl, 10 mM MgCl2, 5 mM CaCl2, pH 7.0, 22° C., equilibration time: 12 h) were performed on a ^32P-3′-labeled EcoRI/PvuII restriction fragment of plasmid pDR1 0 (FIG. 2). This DNA fragment contains four 6-base pair binding sites which differ at one position, 5′-TGTCTA-3′,5′-TGTTTA-3′,5′-TGTATA-3′, and 5′-TGTGTA-3′. The latter one was regarded as the possible match site having a G•C base pair under the Ip/Py or Im/Py pair, respectively.
Construction of plasmid DNA. The plasmid pDR1 was constructed by hybridization of the two oligonucleotides 5′-GATCAGGCTGTC-[…]-GCTGCTGTTTATGGACG-GCTGCTGTATATGGACGG-CTGGGCGA-3′ (SEQ ID NO:1) and 5′-AGCTTCGC-[…]-[…]-3′ (SEQ ID NO:2) followed by ligation into the BamHI/HinDIII restriction fragment of pUC19 using T4 DNA ligase. The resultant plasmid was then used to transform E. coli XL-1 Blue Supercompetent cells. Ampicillin-resistant white colonies were selected from 25 mL Luria-Bertani agar plates containing […] ampicillin, treated with XGAL and IPTG solutions and grown overnight at 37° C. Cells were harvested after overnight growth at 37° C. Large-scale plasmid purification was performed with Qiagen, purification kits. The presence of the desired insert was determined by dideoxy sequencing. DNA concentrations were determined at 260 nm using the relationship 1 OD unit) 50 μg/mL duplex DNA.
Preparation of 3′-End-Labeled DNA Restriction Fragments. The plasmid pDR1 was linearized with EcoRI and PVuII and treated with the Klenow fragment of DNA […], [R-^32P]-dATP, and [R-^32P]-TTP for 3′-end labeling. The labeled 3′-fragment was purified on a 7% nondenaturing polyacrylamide gel (5% cross-linkage) and the desired 284 base pair band isolated after visualization by autoradiography. The DNA was precipitated with 2-propanol, the pellet washed, lyophilized, and resuspended in RNase-free H2O. Chemical sequencing reactions were performed according to published protocols. (Troschütz, R.; Lückel, A. Arch. Pharm., 325, 617-619, 1992.)
DNase I Footprinting. All reactions were carried out in a volume of 400 μL according to published procedures. Quantitation by storage phosphor autoradiography and determination of equilibrium association constants were as previously described. (Trauger, J. W.; Dervan, P. B. Methods Enzymol., 340, 450-466, 2001.)

Stability at acidic pH = type: physicochemical
[2] = test system: EcoRI/PvuII restriction fragment of plasmid pPWF2 (5′-TGRACA-3′); assay: Quantitative DNase I footprint titration, R•S position, plasmid pPWF2; type: binding
Source text: FIG. 9 illustrates the equilibrium association constants Ka[M^−1] and specificities for polyamide oligomers D-F, R, S, and V on plasmids pPWF2 and pCAB1 (R•S position).
When replacing PyPy, PyIm, and PyHp dimers with BiPy (as in oligomer D), BiIm (as in oligomer E), and BiHp constructs (as in oligomer F), respectively, the question arises whether a) the benzimidazole ring is capable of cooperating with the imidazole ring on the opposite strand of the hairpin polyamide to specifically recognize a C•G base pair according to the binding model and the general pairing rules, and b) whether the steric and electronic peculiarities of the benzimidazole ring disturb the binding ability of the adjacent heterocycle. In order to address this question for the given polyamide design, the recognition behavior of the benzimidazole-containing polyamides was probed in two of the six base pair positions R•S and X•Y of the recognition sequence (5′-TGRACA-3′ and 5′-TGGXCA-3′ for oligomers D and F; 5′-TGRCAA-3′ and 5′-TGGXAA-3′ for oligomer E; FIG. 6) and compared with the DNA-binding ability of the related all five-membered oligomers R, S, and V at the same recognition sequences.
(§1) Evaluation of the DNA recognition properties of the new ligands oligomers D, E, and F at the imidazole/benzimidazole position (referred to as R•S position) should reveal the sequence preference of the benzimidazole ring. The binding properties at the neighboring ring position (referred to as X•Y position) were expected to disclose whether the recognition capabilities of the adjacent internal five-membered ring are disturbed by the benzimidazole moiety. To examine the consequences of the ring replacement for DNA binding in terms of affinity and specificity, the benzimidazole-containing hairpin polyamides oligomers D, E, and F were evaluated by quantitative DNase I footprint titrations and the results compared to those from related oligomers R, S, and V, which were investigated under identical conditions. Quantitative DNase I footprint titration experiments (10 mm Tris-HCl, 10 mm KCl, 10 mm MgCl2, 5 mm CaCl2, pH 7.0, 22° C., equilibration time: 12 h) were performed on ^32P-3′-labeled EcoRI/PvuII restriction fragments of plasmids pPWF2 and pCAB1 (to probe the R•S position, FIG. 7); and pAU2 and pCAB2 (to probe the X•Y position, FIG. 8). Equilibrium association constants (Ka) for the polyamide oligomers at the binding sites of interest were determined as described above in Example 3.

[3] = test system: EcoRI/PvuII restriction fragment of plasmid pAU2 (5′-TGGXCA-3′); assay: Quantitative DNase I footprint titration, X•Y position, plasmid pAU2; type: binding; settings: match and mismatch sites
Source text: FIG. 10 illustrates the equilibrium association constants Ka[M^−1] and specificities for polyamide oligomers D-F, R, S, and V on plasmids pAU2 and pCAB2 (X•Y position). […]
as §1, with “The binding properties at the neighboring ring position (referred to as X•Y position) were expected to disclose whether the recognition capabilities of the adjacent internal five-membered ring are disturbed by the benzimidazole moiety.” left out

5′-AGWWCT-3′ (W=A, T) = assay: DNase I footprint titration, multiple Hz/Py pairs; type: binding
Experimental: FIG. 17 is a table showing the association equilibrium constant Ka[M^−1] for polyamide oligomers H and K. The reported association constants are the average values obtained from three DNase I footprint titration experiments, with the standard deviation given in parenthesis. Assays were carried out at 22° C. at pH 7.0 in the presence of 10 mM Tris-HCl, 10 mM KCl, 10 mM MgCl2, and 5 mM CaCl2 at pH 7.0.
For polyamides Im-Hz-Py-Py-γ-Im-Hz-Py-Py-β-Dp (oligomer H) and Im-Py-Hz-Py-γ-Im-Py-Hz-Py-β-Dp (oligomer K) the ability of multiple Hz/Py pairs to distinguish poly A,T sequences was tested by varying two DNA base pairs across from the Hz/Py and Py/Hz pairs (bolded in the sequences listed above) within the parent-sequence context, 5′-AGWWCT-3′, (W=A, T) and comparing the relative affinities of the resulting complexes (FIG. 16). Equilibrium association constants (Ka) for polyamide oligomers containing multiple Hp/Py pairs have been reported and are included for comparison with values presented here (FIG. 17). […] The recognition profiles of polyamide oligomers containing multiple Hz/Py pairs (oligomers H and K) are similar to those reported for multiple Hp/Py pairs.
Footprinting Experiments.—Plasmids pDHN1 and pDEH10 were constructed and 5′-radiolabeled as previously described. […]

selectivity of T•A over A•T ([1]; 5′-TGTTTA-3′ vs A•T site): 18 fold | binding at C•G site ([1]; C•G site (5′-TGTCTA-3′), for Q concentration range up to 200 nM): No binding was observed | lower affinity at G•C mismatch site 5′-TGTGTA-3′ ([1]; relative to match site 5′-TGTTTA-3′): at least 80 fold | equilibrium association constant Ka ([1]; site 5′-TGTTTA-3′ (T•A), pH 7.0, 22° C., equilibration 12 h): 5.7e+08 M⁻¹ | stability at acidic pH (Stability at acidic pH): stable
SMILES: CNC(=O)c1cc(NC(=O)c2cc(NC(=O)c3cc(NC(=O)c4cc(NC(=O)[C@H](N)CCNC(=O)c5cc(NC(=O)c6ccc7nc(-c8cc(NC(=O)c9nccn9C)cn8C)[nH]c7c6O)cn5C)cn4C)cn3C)cn2C)cn1C [B]

match site Ka, R•S position ([2]; 5′-TGRACA-3′ match site, pH 7.0, 22° C., 12 h): 2.5e+10 M⁻¹ | match site affinity compared with related all five-membered oligomer, R•S position ([2]; D vs R, F vs V): six to seven-fold higher | single base pair mismatch specificities compared with related oligomer, R•S position ([2]; D vs R, F vs V): comparable | binding affinities and specificities compared with related oligomers R, V, X•Y position [3]: same order of magnitude
SMILES: CNC(=O)c1cc(NC(=O)c2ccc3nc(-c4c(O)c(NC(=O)c5nc(NC(=O)[C@H](N)CCNC(=O)c6cc(NC(=O)c7cc(NC(=O)c8nc(NC(=O)c9nccn9C)cn8C)cn7C)cn6C)cn5C)cn4C)[nH]c3c2)cn1C [F]

specificity for match sequence 5′-AGTACT-3′ over 5′-AGAACT-3′ and 5′-AGATCT-3′ (5′-AGWWCT-3′ (W=A, T)): greater than 14 fold
SMILES: CN(C)CCCNC(=O)CCNC(=O)c1cc(NC(=O)c2cc(NC(=O)c3ccc4nc(-c5nc(NC(=O)CCCNC(=O)c6cc(NC(=O)c7cc(NC(=O)c8ccc9nc(-c%10nccn%10C)[nH]c9c8O)cn7C)cn6C)cn5C)[nH]c4c3O)cn2C)cn1C [H]

specificity for match sequence 5′-AGTACT-3′ over 5′-AGAACT-3′ and 5′-AGATCT-3′ (5′-AGWWCT-3′ (W=A, T)): poor site selectivity
SMILES: CN(C)CCCNC(=O)CCNC(=O)c1cc(NC(=O)c2ccc3nc(-c4cc(NC(=O)c5nc(NC(=O)CCCNC(=O)c6cc(NC(=O)c7ccc8nc(-c9cc(NC(=O)c%10nccn%10C)cn9C)[nH]c8c7O)cn6C)cn5C)cn4C)[nH]c3c2O)cn1C [K]
